Measured values from US7332476B2, “Pyridyl substituted ketolide antibiotics” (Novartis AG, priority 2003, dated 2008).
Values after ≈ are worked out from the molar mass of the structure shown.

Assays:
Test in all cases: MIC, broth microdilution (NCCLS)
[1] = tested on: Streptococcus pneumoniae Stpn_Mef S 3427; type: cell-based; settings: Table 7, Strain ID L (Table 6): S. pneumoniae Stpn_Mef S 3427
Description: (§1) Strains. The bacterial isolates listed in Table 4 were cultivated from −70° C. frozen stocks by two consecutive overnight passages (P1, P2) at 35° C. on 5% blood agar (Remel, Lenexa, Kans.). Chocolate agar (Remel) is used for Haemophilus influenzae. H. influenzae and Streptococcus pneumoniae are incubated in 5-10% CO2
(§2) Drug Stock Preparation. To determine the amount of solvent to be used to give the desired final concentration, the formula “weight obtained in mg/final concentration in mg/ml” will be used. It will give the amount of solvent in ml needed to be added to give the desired concentration. For example, if 2.5 mg/ml is the desired concentration and the weight of compound is 13.7 mg, then the amount of solvent to be added is […]. Methanol is used as the solvent to dissolve the test compounds. Further dilution of stock is done in sterile, deionized water. Drug stocks are kept frozen at −70° C., protected from light.
(§3) Susceptibility Testing. MICs are determined by the broth microdilution method in accordance with the NCCLS guidelines. In brief, organism suspensions are adjusted to a 0.5 McFarland standard to yield a final inoculum between 3×10^5 and 7×10^5 CFU/ml. Drug dilutions and inocula are made in sterile, cation adjusted Mueller-Hinton Broth (CAMHB) (Remel) for all but S. pneumoniae [CAMHB with 2-5% lysed horse blood (Remel)] and H. influenzae [Haemophilus Test Medium (Remel)]. An inoculum volume of 100 μl is added to wells containing 100 μl of broth with 2-fold serial dilutions of drug. All inoculated microdilution trays are incubated in ambient air at 35° C. for 18-24 hours, except for S. pneumoniae, and H. influenzae (both at 5-10% CO2).
(§4) Following appropriate incubation, the MIC is determined and the MIC is defined as the lowest concentration of the drug that prevented visible growth.
as §1, with “8” for “4”
(§5) Following appropriate incubation, the MIC is determined and the MIC is defined as the lowest concentration of the drug that prevented visible growth. […] Antibacterial activity of representative compounds of the invention were compared against telitromycin.

[2] = tested on: Streptococcus pyogenes Stpy_8668; type: cell-based; settings: Table 7, Strain ID E (Table 6): S. pyogenes Stpy_8668
Description: as §1, §2, §3, §4
as §1, with “8” for “4”
as §5

[3] = tested on: Streptococcus pneumoniae Stpn_49619; type: cell-based; settings: Table 7, Strain ID F (Table 6): S. pneumoniae Stpn_49619
Description: as §1, §2, §3, §4
as §1, with “8” for “4”
as §5

[4] = tested on: Streptococcus pneumoniae Stpn_297-749; type: cell-based; settings: Table 7, Strain ID G (Table 6): S. pneumoniae Stpn_297-749
Description: as §1, §2, §3, §4
as §1, with “8” for “4”
as §5

[5] = tested on: Streptococcus pneumoniae Stpn_280-962; type: cell-based; settings: Table 7, Strain ID H (Table 6): S. pneumoniae Stpn_280-962
Description: as §1, §2, §3, §4
as §1, with “8” for “4”
as §5

[6] = tested on: Enterococcus faecalis Enfa_29212; type: cell-based; settings: Table 7, Strain ID D (Table 6): E. faecalis Enfa_29212; in µg/mL (unit assumed)
Description: as §1, §2, §3, §4
as §1, with “8” for “4”
as §5

[7] = tested on: Haemophilus influenzae Hain_49247; type: cell-based; settings: Table 7, Strain ID M (Table 6): H. influenzae Hain_49247; unit assumed
Description: as §1, §2, §3, §4
as §1, with “8” for “4”
as §5

[8] = tested on: Staphylococcus epidermidis Step_14990; type: cell-based; settings: Table 7, Strain ID B (Table 6): S. epidermidis Step_14990; in µg/mL (unit assumed)
Description: as §1, §2, §3, §4
as §1, with “8” for “4”
as §5

[9] = tested on: Streptococcus pneumoniae Stpn_Erm S 4297; type: cell-based; settings: Table 7, Strain ID J (Table 6): S. pneumoniae Stpn_Erm S 4297
Description: as §1, §2, §3, §4
as §1, with “8” for “4”
as §5

[10] = tested on: S. pneumoniae Stpn_Erm 6849; type: cell-based, Streptococcus pneumoniae; settings: Table 7, Strain ID I (Table 6): S. pneumoniae Stpn_Erm 6849
Description: as §1, §2, §3, §4

Structure (SMILES)	MIC [1]	MIC [2]	MIC [3]	MIC [4]	MIC [5]	MIC [6]	MIC [7]	MIC [8]	MIC ([9]; unit assumed)	MIC [9]	MIC [10]
CC[C@H]1OC(=O)[C@H](C)C(=O)[C@H](C)[C@@H](OC2O[C@H](C)C[C@H](N(C)C)[C@H]2O)[C@@](C)(OC)C[C@@H](C)C(=O)[C@H](C)[C@H]2N(CCCCn3cnc4cccnc43)C(=O)O[C@]12CC (stereo partly drawn) [Example 14, (3aS,4R,7R,9R,10R,11S,13R,15R,15aR)-3a,4-DIETHYL-1-[4-(3H-IMIDAZO[4,5-B]PYRIDIN-3-YL)BUTYL]-11-METHOXY-7,9,11,13,15-PENTAMETHYL-2,6,8,14-TETRAOXOTETRADECAHYDRO-2H-OXACYCLOTETRADECINO[4,3-D][1,3]OXAZOL-10-YL-3,4,6-TRIDEOXY-3-(DIMETHYLAMINO)-D-XYLO-HEXOPYRANOSIDE]	=0.05	=0.05	=0.05	=0.05	=0.05						
CC[C@H]1OC(=O)[C@H](C)C(=O)[C@H](C)[C@@H](OC2O[C@H](C)C[C@H](N(C)C)[C@H]2O)[C@@](C)(OC)C[C@@H](C)C(=O)[C@H](C)[C@H]2N(CCCCc3ccnc4ccccc34)C(=O)O[C@]12CC (stereo partly drawn) [Example 15, (3aS,4R,7R,9R,10R,11S,13R,15R,15aR)-3a,4-DIETHYL-11-METHOXY-7,9,11,13,15-PENTAMETHYL-2,6,8,14-TETRAOXO-1-(4-QUINOLIN-4-YLBUTYL)TETRADECAHYDRO-2H-OXACYCLOTETRADECINO[4,3-D][1,3]OXAZOL-10-YL-3,4,6-TRIDEOXY-3-(DIMETHYLAMINO)-D-XYLO-HEXOPYRANOSIDE]	=0.05	=0.05	=0.05	=0.05	=0.05	0.1	3.13 µg/mL (≈ 3.86 µM)	0.2	0.1 µg/mL (≈ 0.123 µM)		
CC[C@H]1OC(=O)[C@H](C)C(=O)[C@H](C)[C@@H](OC2O[C@H](C)C[C@H](N(C)C)[C@H]2O)[C@@](C)(OC)C[C@@H](C)C(=O)[C@H](C)[C@H]2N(CCCCc3ccc4ccccc4n3)C(=O)O[C@]12CC (stereo partly drawn) [Example 18, (3aS,4R,7R,9R,10R,11S,13R,15R,15aR)-3a,4-diethyl-11-methoxy-7,9,11,13,15-pentamethyl-2,6,8,14-tetraoxo-1-(4-quinolin-2-ylbutyl)tetradecahydro-2H-oxacyclotetradecino[4,3-d][1,3]oxazol-10-yl-3,4,6-trideoxy-3-(dimethylamino)-D-xylo-hexopyranoside]	=0.05		=0.05	=0.05	=0.05						
CC[C@H]1OC(=O)[C@@](C)(F)C(=O)[C@H](C)[C@@H](OC2O[C@H](C)C[C@H](N(C)C)[C@H]2O)[C@@](C)(OC)C[C@@H](C)C(=O)[C@H](C)[C@H]2N(CCCC(C)(C)n3cnc(-c4cccnc4)c3)C(=O)O[C@]12CC (stereo partly drawn) [Example 32, (3aS,4R,7S,9R,10R,11S,13R,15R,15aR)-3a,4-diethyl-7-fluoro-11-methoxy-7,9,11,13,15-pentamethyl-1-[4-methyl-4-(4-pyridin-3-yl-1H-imidazol-1-yl)pentyl]-2,6,8,14-tetraoxotetradecahydro-2H-oxacyclotetradecino[4,3-d][1,3]oxazol-10-yl-3,4,6-trideoxy-3-(dimethylamino)-D-xylo-hexopyranoside]		=0.05	=0.05	=0.05	=0.05					=0.05	
CC[C@H]1OC(=O)[C@H](C)C(=O)[C@H](C)[C@@H](OC2O[C@H](C)C[C@H](N(C)C)[C@H]2O)[C@@](C)(OC)C[C@@H](C)C(=O)[C@H](C)[C@H]2N(CCCOc3cccc(-c4cccnc4)c3)C(=O)O[C@]12CC (stereo partly drawn) [Example 35, (3aS,4R,7R,9R,10R,11S,13R,15R,15aR)-3a,4-diethyl-11-methoxy-7,9,11,13,15-pentamethyl-2,6,8,14-tetraoxo-1-[3-(3-pyridin-3-ylphenoxy)propyl]tetradecahydro-1H-oxacyclotetradecino[4,3-d][1,3]oxazol-10-yl-3,4,6-trideoxy-3-(dimethylamino)-D-xylo-hexopyranoside]				=0.05	=0.05						=0.05
CC[C@H]1OC(=O)[C@H](C)C(=O)[C@H](C)[C@@H](OC2O[C@H](C)C[C@H](N(C)C)[C@H]2O)[C@@](C)(OC)C[C@@H](C)C(=O)[C@H](C)[C@H]2N(CCCC(C)(C)n3cnc4ncccc43)C(=O)O[C@]12CC (stereo partly drawn) [Example 37, (3aS,4R,7R,9R,10R,11S,13R,15R,15aR)-3a,4-diethyl-1-[4-(1H-imidazo[4,5-b]pyridin-1-yl)-4-methylpentyl]-11-methoxy-7,9,11,13,15-pentamethyl-2,6,8,14-tetraoxotetradecahydro-2H-oxacyclotetradecino[4,3-d][1,3]oxazol-10-yl-3,4,6-trideoxy-3-(dimethylamino)-D-xylo-hexopyranoside]		=0.05	=0.05	=0.05	=0.05						
CC[C@H]1OC(=O)[C@H](C)C(=O)[C@H](C)[C@@H](OC2O[C@H](C)C[C@H](N(C)C)[C@H]2O)[C@@](C)(OC)C[C@@H](C)C(=O)[C@H](C)[C@H]2N(CCCC(C)(C)n3cnc4cccnc43)C(=O)O[C@]12CC (stereo partly drawn) [Example 38, (3aS,4R,7R,9R,10R,11S,13R,15R,15aR)-3a,4-diethyl-1-[4-(3H-imidazo[4,5-b]pyridin-3-yl)-4-methylpentyl]-11-methoxy-7,9,11,13,15-pentamethyl-2,6,8,14-tetraoxotetradecahydro-2H-oxacyclotetradecino[4,3-d][1,3]oxazol-10-yl-3,4,6-trideoxy-3-(dimethylamino)-D-xylo-hexopyranoside]		=0.05	=0.05	=0.05	=0.05						
C=C[C@]12OC(=O)N(CCCCn3cnc(-c4cccnc4)c3)[C@@H]1[C@@H](C)C(=O)[C@H](C)C[C@](C)(OC)[C@H](OC1O[C@H](C)C[C@H](N(C)C)[C@H]1O)[C@@H](C)C(=O)[C@](C)(F)C(=O)O[C@@H]2CC (stereo partly drawn) [Example 49, (3aS,4R,7S,9R,10R,11S,13R,15R,15aR)-4-ethyl-7-fluoro-11-methoxy-7,9,11,13,15-pentamethyl-2,6,8,14-tetraoxo-1-[4-(4-pyridin-3-yl-1H-imidazol-1-yl)butyl]-3a-vinyltetradecahydro-1H-oxacyclotetradecino[4,3-d][1,3]oxazol-10-yl-3,4,6-trideoxy-3-(dimethylamino)-D-xylo-hexopyranoside]	=0.05	=0.05	=0.05	=0.05	=0.05					=0.05	
C=C[C@]12OC(=O)N(CCCC(C)(C)n3cnc(-c4cccnc4)c3)[C@@H]1[C@@H](C)C(=O)[C@H](C)C[C@](C)(OC)[C@H](OC1O[C@H](C)C[C@H](N(C)C)[C@H]1O)[C@@H](C)C(=O)[C@@H](C)C(=O)O[C@@H]2CC (stereo partly drawn) [Example 50, (3aS,4R,7R,9R,10R,11S,13R,15R,15aR)-4-ethyl-11-methoxy-7,9,11,13,15-pentamethyl-1-[4-methyl-4-(4-pyridin-3-yl-1H-imidazol-1-yl)pentyl]-2,6,8,14-tetraoxo-3a-vinyltetradecahydro-1H-oxacyclotetradecino[4,3-d][1,3]oxazol-10-yl-3,4,6-trideoxy-3-(dimethylamino)-D-xylo-hexopyranoside]		=0.05	=0.05	=0.05	=0.05					=0.05	
